Assay results reported in patent US11542259B2, “Compounds for the treatment of kinase-dependent disorders” (Exelixis, Inc., priority 2018, dated 2023).

Key:
[1] = target: Human Mer (residues R557-E882 with H628Q and R794A) (Homo sapiens (Human), UniProt Q12866); experiment: Human Mer kinase assay (33P radiometric, KinaseProfiler); type: biochemical; settings: 10 μM ATP
Met = Met (Homo sapiens (Human), UniProt P08581); experiment: Met autophosphorylation ELISA in PC-3 cells; type: cell-based; settings: cellular, HGF stimulated, read-out: c-Met IC50
Sequence of Met (P08581 25-1390): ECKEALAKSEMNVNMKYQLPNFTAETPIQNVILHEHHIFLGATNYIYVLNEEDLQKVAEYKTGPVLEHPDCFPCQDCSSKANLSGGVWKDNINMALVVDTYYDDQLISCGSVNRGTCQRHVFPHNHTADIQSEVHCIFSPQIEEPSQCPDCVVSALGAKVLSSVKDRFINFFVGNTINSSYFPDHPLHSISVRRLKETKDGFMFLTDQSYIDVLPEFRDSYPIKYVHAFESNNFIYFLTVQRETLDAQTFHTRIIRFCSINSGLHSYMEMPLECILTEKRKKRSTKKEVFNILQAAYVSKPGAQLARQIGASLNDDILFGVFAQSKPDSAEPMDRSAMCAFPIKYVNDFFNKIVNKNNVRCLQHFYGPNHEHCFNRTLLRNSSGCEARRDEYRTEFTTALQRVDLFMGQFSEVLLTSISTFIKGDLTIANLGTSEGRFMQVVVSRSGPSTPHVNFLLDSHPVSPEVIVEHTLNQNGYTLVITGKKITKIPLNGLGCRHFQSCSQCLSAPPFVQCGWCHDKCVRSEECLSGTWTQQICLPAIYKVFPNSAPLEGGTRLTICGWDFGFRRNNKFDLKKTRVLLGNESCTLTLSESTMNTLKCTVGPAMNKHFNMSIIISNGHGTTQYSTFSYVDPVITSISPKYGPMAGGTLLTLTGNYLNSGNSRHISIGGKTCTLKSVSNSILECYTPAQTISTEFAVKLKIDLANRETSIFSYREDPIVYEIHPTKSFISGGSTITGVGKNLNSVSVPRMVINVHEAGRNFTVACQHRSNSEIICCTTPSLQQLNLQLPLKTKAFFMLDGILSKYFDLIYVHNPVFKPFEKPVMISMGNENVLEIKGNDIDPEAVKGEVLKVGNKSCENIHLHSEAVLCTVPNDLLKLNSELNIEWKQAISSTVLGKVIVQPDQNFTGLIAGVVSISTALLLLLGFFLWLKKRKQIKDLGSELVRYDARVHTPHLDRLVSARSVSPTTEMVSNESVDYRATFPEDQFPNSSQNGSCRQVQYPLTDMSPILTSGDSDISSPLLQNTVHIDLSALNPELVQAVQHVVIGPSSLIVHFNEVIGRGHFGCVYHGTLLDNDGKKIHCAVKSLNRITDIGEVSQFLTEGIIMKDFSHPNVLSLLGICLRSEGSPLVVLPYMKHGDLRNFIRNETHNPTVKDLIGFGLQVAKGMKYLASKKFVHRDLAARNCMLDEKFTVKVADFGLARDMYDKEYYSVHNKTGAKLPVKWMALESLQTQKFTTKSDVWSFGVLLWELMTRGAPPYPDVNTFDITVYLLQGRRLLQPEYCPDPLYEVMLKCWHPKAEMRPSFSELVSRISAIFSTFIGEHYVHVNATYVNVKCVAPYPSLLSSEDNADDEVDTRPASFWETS
In short: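 PC-3 cells serum-starved 3 h, treated 1 h with 8-point compound series (0.3% DMSO), then stimulated with 100 ng/mL human HGF for 10 min. Lysate phospho-Met (panTyr) measured by sandwich ELISA; IC50 from 4-parameter logistic fit against DMSO and reference-inhibitor controls.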

[2] = target: Human Met (residues R974-S1390 with A1209G and V1290L) (Homo sapiens, UniProt P08581); experiment: Human Met kinase assay (33P radiometric, KinaseProfiler); type: biochemical; settings: 10 μM ATP, read-out: c-Met IC50
[3] = target: Human Axl (residues H473-A894 with Q764R) (Homo sapiens (Human), UniProt P30530, Q764R); experiment: Human AXL kinase assay (33P radiometric, KinaseProfiler); type: biochemical; settings: 10 μM ATP
Sequence of Human Axl (residues H473-A894 with Q764R) (P30530 473-894 Q764R): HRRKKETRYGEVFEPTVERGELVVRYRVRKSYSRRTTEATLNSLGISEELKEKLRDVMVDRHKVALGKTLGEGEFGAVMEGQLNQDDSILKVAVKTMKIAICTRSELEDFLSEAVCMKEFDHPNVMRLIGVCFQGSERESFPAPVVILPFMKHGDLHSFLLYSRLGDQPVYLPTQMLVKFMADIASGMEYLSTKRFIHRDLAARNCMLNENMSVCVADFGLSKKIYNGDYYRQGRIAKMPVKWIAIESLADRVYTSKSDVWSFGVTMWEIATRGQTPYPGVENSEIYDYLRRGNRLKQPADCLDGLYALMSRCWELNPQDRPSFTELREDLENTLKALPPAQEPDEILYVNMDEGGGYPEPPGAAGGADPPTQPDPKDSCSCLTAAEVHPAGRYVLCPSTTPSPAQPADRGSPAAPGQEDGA

Sequence of Human Mer (residues R557-E882 with H628Q and R794A) (Q12866 557-882, stated change not applied): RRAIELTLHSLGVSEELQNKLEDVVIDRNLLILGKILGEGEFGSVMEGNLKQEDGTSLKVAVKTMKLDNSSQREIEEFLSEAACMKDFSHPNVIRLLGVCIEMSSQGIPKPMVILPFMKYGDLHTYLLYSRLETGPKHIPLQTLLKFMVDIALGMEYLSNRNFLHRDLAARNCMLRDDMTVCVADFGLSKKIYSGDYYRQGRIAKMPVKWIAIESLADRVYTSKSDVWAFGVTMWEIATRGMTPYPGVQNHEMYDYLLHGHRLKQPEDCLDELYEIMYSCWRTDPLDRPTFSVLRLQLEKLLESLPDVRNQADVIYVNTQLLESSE

IC50 [1] [nM] | IC50 (Met) [nM] | IC50 [2] [nM] | IC50 [3] [nM] | Structure (SMILES)
≤ 10 | 10 to 100 | 10 to 100 | 10 to 100 | COc1cc2nccc(Oc3ccc(NC(=O)C4(C(=O)Nc5ccc(F)cc5)CC4)cc3)c2cc1-c1cccc(C#N)c1F [Compound 175, 1-N-[4-[6-(3-cyano-2-fluorophenyl)-7-methoxyquinolin-4-yl]oxyphenyl]-1-N′-(4-fluorophenyl)cyclopropane-1,1-dicarboxamide]
≤ 10 | 10 to 100 | 10 to 100 | ≤ 10 | COc1cc2nccc(Oc3ccc(NC(=O)C4(C(=O)Nc5ccc(F)cc5)CC4)cc3)c2cc1-c1ccccn1 [Compound 176, 1-N′-(4-fluorophenyl)-1-N-[4-(7-methoxy-6-pyridin-2-ylquinolin-4-yl)oxyphenyl]cyclopropane-1,1-dicarboxamide]
≤ 10 | 10 to 100 | 10 to 100 | 10 to 100 | COc1cc2nccc(Oc3ccc(NC(=O)C4(C(=O)Nc5ccc(F)cc5)CC4)cc3)c2cc1-c1ccc(C)o1 [Compound 180, 1-N′-(4-fluorophenyl)-1-N-[4-[7-methoxy-6-(5-methylfuran-2-yl)quinolin-4-yl]oxyphenyl]cyclopropane-1,1-dicarboxamide]
≤ 10 | 10 to 100 | ≤ 10 | 10 to 100 | COc1cc2nccc(Oc3ccc(NC(=O)C4(C(=O)Nc5ccc(F)cc5)CC4)cc3)c2cc1-c1cnn(C)c1 [Compound 182, 1-N′-(4-fluorophenyl)-1-N-[4-[7-methoxy-6-(1-methylpyrazol-4-yl)quinolin-4-yl]oxyphenyl]cyclopropane-1,1-dicarboxamide]
≤ 10 | 10 to 100 | ≤ 10 | 10 to 100 | COc1cc2nccc(Oc3ccc(NC(=O)C4(C(=O)Nc5ccc(F)cc5)CC4)cc3)c2cc1-c1cnoc1 [Compound 183, 1-N′-(4-fluorophenyl)-1-N-[4-[7-methoxy-6-(1,2-oxazol-4-yl)quinolin-4-yl]oxyphenyl]cyclopropane-1,1-dicarboxamide]
≤ 10 | 10 to 100 | 10 to 100 | 10 to 100 | COc1cc2nccc(Oc3ccc(NC(=O)C4(C(=O)Nc5ccc(F)cc5)CC4)cc3)c2cc1-c1c(C)noc1C [Compound 184, 1-N-[4-[6-(3,5-dimethyl-1,2-oxazol-4-yl)-7-methoxyquinolin-4-yl]oxyphenyl]-1-N′-(4-fluorophenyl)cyclopropane-1,1-dicarboxamide]
≤ 10 | 10 to 100 | ≤ 10 | 10 to 100 | COc1cc2nccc(Oc3ccc(NC(=O)C4(C(=O)Nc5ccc(F)cc5)CC4)cc3)c2cc1-c1ccn[nH]1 [Compound 185, 1-N′-(4-fluorophenyl)-1-N-[4-[7-methoxy-6-(1H-pyrazol-5-yl)quinolin-4-yl]oxyphenyl]cyclopropane-1,1-dicarboxamide]
≤ 10 | 10 to 100 | ≤ 10 | 10 to 100 | COc1cc2nccc(Oc3ccc(NC(=O)C4(C(=O)Nc5ccc(F)cc5)CC4)cc3)c2cc1-c1cn[nH]c1 [Compound 186, 1-N′-(4-fluorophenyl)-1-N-[4-[7-methoxy-6-(1H-pyrazol-4-yl)quinolin-4-yl]oxyphenyl]cyclopropane-1,1-dicarboxamide]
≤ 10 | 10 to 100 | 10 to 100 | ≤ 10 | COc1cc2nccc(Oc3ccc(NC(=O)C4(C(=O)Nc5ccc(F)cc5)CC4)cc3)c2cc1C1CC1 [Compound 187, 1-N-[4-(6-cyclopropyl-7-methoxyquinolin-4-yl)oxyphenyl]-1-N′-(4-fluorophenyl)cyclopropane-1,1-dicarboxamide]
≤ 10 | 10 to 100 | ≤ 10 | 10 to 100 | COc1cc2nccc(Oc3ccc(NC(=O)C4(C(=O)Nc5ccc(F)cc5)CC4)cc3)c2cc1-c1ccc[nH]1 [Compound 188, 1-N′-(4-fluorophenyl)-1-N-[4-[7-methoxy-6-(1H-pyrrol-2-yl)quinolin-4-yl]oxyphenyl]cyclopropane-1,1-dicarboxamide]
≤ 10 | 10 to 100 | 10 to 100 | 10 to 100 | COc1cc2nccc(Oc3ccc(NC(=O)C4(C(=O)Nc5ccc(F)cc5)CC4)cc3)c2cc1C1(O)CN(C(=O)OC(C)(C)C)C1 [Compound 195, tert-butyl 3-[4-[4-[[1-[(4-fluorophenyl)carbamoyl]cyclopropanecarbonyl]amino]phenoxy]-7-methoxyquinolin-6-yl]-3-hydroxyazetidine-1-carboxylate]
≤ 10 | 10 to 100 | ≤ 10 | ≤ 10 | COc1cc2nccc(Oc3ccc(NC(=O)C4(C(=O)Nc5ccc(F)cc5)CC4)cc3)c2cc1C1(O)COC1 [Compound 196, 1-N′-(4-fluorophenyl)-1-N-[4-[6-(3-hydroxyoxetan-3-yl)-7-methoxyquinolin-4-yl]oxyphenyl]cyclopropane-1,1-dicarboxamide]
≤ 10 | 100 to 300 | ≤ 10 | 10 to 100 | COc1cc2nccc(Oc3ccc(NC(=O)C4(C(=O)Nc5ccc(F)cc5)CC4)cc3)c2cc1C1(O)CNC1 [Compound 197, 1-N′-(4-fluorophenyl)-1-N-[4-[6-(3-hydroxyazetidin-3-yl)-7-methoxyquinolin-4-yl]oxyphenyl]cyclopropane-1,1-dicarboxamide]
≤ 10 | 10 to 100 | 10 to 100 | 10 to 100 | COc1cc2nccc(Oc3ccc(NC(=O)C4(C(=O)Nc5ccc(F)cc5)CC4)cc3)c2cc1N1CCC1 [Compound 198, 1-N-[4-[6-(azetidin-1-yl)-7-methoxyquinolin-4-yl]oxyphenyl]-1-N′-(4-fluorophenyl)cyclopropane-1,1-dicarboxamide]
≤ 10 | ≤ 10 | ≤ 10 | ≤ 10 | COc1cc2nccc(Oc3ccc(NC(=O)C4(C(=O)Nc5ccc(F)cc5)CC4)cc3)c2cc1N1CC(O)C1 [Compound 199, 1-N′-(4-fluorophenyl)-1-N-[4-[6-(3-hydroxyazetidin-1-yl)-7-methoxyquinolin-4-yl]oxyphenyl]cyclopropane-1,1-dicarboxamide]
≤ 10 | 10 to 100 | 10 to 100 | 10 to 100 | COc1cc2nccc(Oc3ccc(NC(=O)C4(C(=O)Nc5ccc(F)cc5)CC4)cc3)c2cc1N1CC(F)(F)C1 [Compound 200, 1-N-[4-[6-(3,3-difluoroazetidin-1-yl)-7-methoxyquinolin-4-yl]oxyphenyl]-1-N′-(4-fluorophenyl)cyclopropane-1,1-dicarboxamide]
≤ 10 | 10 to 100 | ≤ 10 | ≤ 10 | COc1cc2nccc(Oc3ccc(NC(=O)C4(C(=O)Nc5ccc(F)cc5)CC4)cc3)c2cc1-c1cccnc1 [Compound 201, 1-N′-(4-Fluorophenyl)-1-N-[4-(7-methoxy-6-pyridin-3-ylquinolin-4-yl)oxyphenyl]cyclopropane-1,1-dicarboxamide]
≤ 10 | 10 to 100 | ≤ 10 | 10 to 100 | COc1cc2nccc(Oc3ccc(NC(=O)C4(C(=O)Nc5ccc(F)cc5)CC4)cc3)c2cc1-c1ccncc1 [Compound 202, 1-N′-(4-Fluorophenyl)-1-N-[4-(7-methoxy-6-pyridin-4-ylquinolin-4-yl)oxyphenyl]cyclopropane-1,1-dicarboxamide]
≤ 10 | ≤ 10 | ≤ 10 | ≤ 10 | COc1cc2nccc(Oc3ccc(NC(=O)C4(C(=O)Nc5ccc(F)cc5)CC4)cc3)c2cc1S(N)(=O)=O [Compound 206, 1-N′-(4-Fluorophenyl)-1-N-[4-(7-methoxy-6-sulfamoylquinolin-4-yl)oxyphenyl]cyclopropane-1,1-dicarboxamide]
≤ 10 | 10 to 100 | ≤ 10 | ≤ 10 | COc1cc2nccc(Oc3ccc(NC(=O)C4(C(=O)Nc5ccc(F)cc5)CC4)cc3)c2cc1S(C)(=O)=O [Compound 210, 1-N′-(4-Fluorophenyl)-1-N-[4-(7-methoxy-6-methylsulfonylquinolin-4-yl)oxyphenyl]cyclopropane-1,1-dicarboxamide]
≤ 10 | 10 to 100 | ≤ 10 | ≤ 10 | COc1cc2nccc(Oc3ccc(NC(=O)C4(C(=O)Nc5ccc(F)cc5)CC4)cc3)c2cc1-c1nnco1 [Compound 220, 1-N′-(4-Fluorophenyl)-1-N-[4-[7-methoxy-6-(1,3,4-oxadiazol-2-yl)quinolin-4-yl]oxyphenyl]cyclopropane-1,1-dicarboxamide]
